According to US9605002B2, “5,5-heteroaromatic anti-infective compounds” (priority 2012, dated 2017):
Several values for one entry are separate records, joined by “and”; a condition that tells them apart may be missing. Equal values may be shown once.

Columns and labels:
Experiment in all cases: MIC against clinical Mtb strains
Format in all cases: cell-based
Conditions in all cases: Mycobacterium tuberculosis
[1] = tested on: MDR-TB resistant to HREZSKP
[2] = tested on: MDR-TB resistant to HREKP
[3] = tested on: MDR-TB resistant to HRERb
[4] = tested on: XDR-TB resistant to HRESKO
[5] = tested on: XDR-TB resistant to HREKO

**Q.** Which results are given for `O=[N+]([O-])c1cn2c(n1)OC[C@@H](OCc1ccc(OC(F)(F)F)cc1)C2` [PA-824, reference compound]?
**A.** MIC90 [1]: 0.45 µM to 0.86 µM and 0.16 µg/mL to 0.31 µg/mL; MIC90 [2]: 0.45 µM to 0.86 µM and 0.16 µg/mL to 0.31 µg/mL; MIC90 [3]: 0.45 µM to 0.86 µM and 0.16 µg/mL to 0.31 µg/mL; MIC90 [4]: 0.86 µM and 0.31 µg/mL; MIC90 [5]: 0.22 µM and 0.08 µg/mL

**Q.** With `Cc1cn2c(C(=O)NCc3ccc(Oc4ccc(F)cc4)cc3)c(C)nc2s1` [ND-010081] as the molecule, how does the MIC90 [1] read?
**A.** 0.02 µM to 10 µM and 0.05 µg/mL to 25 µg/mL

**Q.** And the MIC90 [2]?
**A.** < 0.01 µM and < 0.025 µg/mL

**Q.** What about the MIC90 [3] of the same molecule?
**A.** 0.63 µM and 1.6 µg/mL

**Q.** And the MIC90 [4]?
**A.** < 0.01 µM and < 0.025 µg/mL

**Q.** What about the MIC90 [5] of the same molecule?
**A.** < 0.01 µM and < 0.025 µg/mL
